The values that follow are results of earlier work, collected in patent publication US5240711A, “Transdermal therapeutic system comprising as active component buprenorphine” (LTS Lohmann Therapie-Systeme GmbH & Co. KG, priority 1989, dated 1993).

Structures are written as SMILES.

For the molecule `CO[C@]12CC[C@@]3(C[C@@H]1[C@](C)(O)C(C)(C)C)[C@H]1Cc4ccc(O)c5c4[C@@]3(CCN1CC1CC1)[C@H]2O5` [buprenorphine, 17-(cyclopropylmethyl)-α-(1,1-dimethylethyl)-4,5-epoxy-18,19-dihydro-3-hydroxy-6-methoxy-α-methyl-6,14-ethenomorphinane-7-methanol], the “solubility in conventional organic solvents and water” value was “very slight solubility”. Besides, the “penetration through the human skin” value in the series on human skin is “only badly penetrates through the human skin”.
